Test results published in US20170007625A1, “NOVEL FORMULATIONS TO INHIBIT CYCLOOXYGENASE AND PRO-INFLAMMATORY CYTOKINE MEDIATED DISEASES” (Bioved Pharmaceuticals, Inc., priority 2008, published 2017).

Columns and labels:
[1] = system: Adjuvant Arthritis (CFA induced); test: Adjuvant induced arthritis in rats; assay type: in vivo
Protocol: Arthritis or inflammation in the joint was induced by injection of Complete Freund's Adjuvant (CFA) into the left hind footpad of rats (animals). The animals were divided into three groups namely, Control, Ibuprofen and Formulation B. The role of Formulation B on specific cytokine blockade in the etiology of cachexia caused by Adjuvant Arthritis (AA) was evaluated. The parameter considered for the evaluation included paw thickness as a percent of paw thickness at Day 0 and percent body weight gain in animals. FIG. 4 illustrates paw thickness in animals as a percent of the paw thickness at Day 0 during the Adjuvant Induced Arthritis study in animals. Whereas, FIG. 5 illustrates percent body weight gain in animals during the Adjuvant Induced Arthritis study in animals.

DSS induced colitis = test: Dextran Sodium Sulfate (DSS) induced colitis; assay type: in vivo; conditions: oral DSS in mice
From the text: Inflammation was induced in mice (animal) using oral administration of DSS.

Structure (SMILES)	effect on cytokine inhibition ([1]; CFA into left hind footpad)	percent body weight gain (AA-associated weight loss) ([1]; compared to control animals, FIG. 5)	reduction in food intake (DSS induced colitis)	body weight loss (DSS induced colitis; FIG. 13)
CC(C)Cc1ccc(C(C)C(=O)O)cc1 (stereo not shown) [Ibuprofen]	did not show any effect	lost body weight significantly		
O=C(O)c1cc(/N=N/c2ccc(S(=O)(=O)Nc3ccccn3)cc2)ccc1O [Sulfasalazine]			recovered	improved the body weight loss
